Experimental data as given in ChEMBL document CHEMBL3352781, “Synthesis, antileishmanial and antitrypanosomal activities of N-substituted tetrahydro-β-carbolines” (Bioorg Med Chem Lett, 2014).
Active and inactive are the calls of the source. No cut-off for these calls is given here.

Tests used:
[1] = test system: Vero; test: Cytotoxicity against African green monkey Vero cells up to 25 ug/ml after 48 hrs by neutral red assay; type: cell-based; conditions: chlorocebus sabaeus
[2] = test system: Trypanosoma brucei; test: Antimicrobial activity against trypamastigote stage of Trypanosoma brucei after 72 hrs by Alamar Blue assay; type: functional, organism-based
[3] = test system: Leishmania donovani; test: Antimicrobial activity against promastigote stage of Leishmania donovani after 72 hrs by Alamar Blue assay; type: functional, organism-based
[4] = test system: LLC-PK1; test: Cytotoxicity against pig LLC-PK1 cells up to 25 ug/ml after 48 hrs by neutral red assay; type: cell-based, Sus scrofa; conditions: llc-pk1, 48 h
[5] = test system: Leishmania donovani; test: Antimicrobial activity against promastigote stage of Leishmania donovani infected in human THP1 cells after 72 hrs by Alamar Blue assay; type: functional, organism-based
[6] = test system: THP-1; test: Cytotoxicity against human THP1 cells up to 10 ug/ml after 48 hrs by neutral red assay; type: cell-based; conditions: thp-1, 48 h
[7] = test system: Leishmania donovani; test: Antimicrobial activity against axenic amastigote stage of Leishmania donovani after 72 hrs by Alamar Blue assay; type: functional, organism-based
[8] = test system: HepG2; test: Cytotoxicity against human HepG2 cells up to 25 ug/ml after 48 hrs by neutral red assay; type: cell-based; conditions: hepg2, 48 h
[9] = test system: HepG2; test: Cytotoxicity against human HepG2 cells after 48 hrs by neutral red assay; type: cell-based; conditions: HepG2, 48 h
[10] = test system: Leishmania infantum; test: Antimicrobial activity against promastigote stage of Leishmania infantum; type: functional, organism-based
[11] = test system: Leishmania infantum; test: Antimicrobial activity against amastigote stage of Leishmania infantum; type: functional, organism-based
[12] = test system: Trypanosoma cruzi; test: Antimicrobial activity against epimastigote stage of Trypanosoma cruzi Y; type: functional, organism-based
[13] = Trypanosoma brucei, 72 h, read-out: IC50
[14] = Leishmania donovani, 72 h, read-out: IC50
[15] = Leishmania donovani, THP-1, 72 h
[16] = Leishmania donovani, THP-1, 72 h, read-out: IC50

SMILES	Activity [1]	IC50 [2, 13] [µM]	IC50 [3, 14] [µM]	Activity [4]	IC90 ([5]; THP-1)	IC50 ([5]; thp-1)	Activity [6]	IC50 [7]	IC90 [7]	Activity [8]	IC50 [2]	IC90 [2]	IC50 [7, 14] [µM]	other results
Clc1ccc(CN2CCc3c([nH]c4ccccc34)C2)s1	Non-toxic	8.9	9.1	Non-toxic	inactive	Not Active	Non-toxic	Not Active	inactive	Non-toxic	–	–	–	IC90 ([2]; Trypanosoma brucei, 72 h): 14.5 µM; IC90 ([3]; Leishmania donovani, 72 h): 25.6 µM
O=C(c1ccc(-c2cccc([N+](=O)[O-])c2)o1)N1CCc2c([nH]c3ccccc23)C1	Non-toxic	–	66.7	Non-toxic	inactive	Not Active	Non-toxic	Not Active	inactive	Non-toxic	Not Active	inactive	–	–
O=C(c1ccc(Br)o1)N1CCc2c([nH]c3ccccc23)C1	Non-toxic	13.7	27.5	Non-toxic	inactive	Not Active	Non-toxic	–	–	Non-toxic	–	–	96.5	IC90 ([2]; Trypanosoma brucei, 72 h): 23.9 µM; IC90 ([7]; Leishmania donovani, 72 h): 122 µM
c1ccc2cc(CN3CCc4c([nH]c5ccccc45)C3)ccc2c1	Non-toxic	10.2	22.1	Non-toxic	–	–	Non-toxic	–	–	Non-toxic	–	–	87.6	IC90 ([2]; Trypanosoma brucei, 72 h): 17.6 µM; IC90 ([3]; Leishmania donovani, 72 h): 28.1 µM; IC90 [5, 15]: > 32 µM; IC50 [5, 16]: 28.3 µM
O=C(c1ccc(-c2cc(C(F)(F)F)ccc2Cl)o1)N1CCc2c([nH]c3ccccc23)C1	–	–	39.6	–	inactive	Not Active	Non-toxic	–	–	–	Not Active	inactive	37.1	IC90 ([3]; Leishmania donovani, 72 h): 69.1 µM; IC50 [9]: 25.5 µM; IC90 ([7]; Leishmania donovani, 72 h): 76 µM
Cc1ncsc1C(=O)N1CCc2c([nH]c3ccccc23)C1	–	–	–	–	inactive	Not Active	–	Not Active	inactive	–	Not Active	inactive	–	IC50 [3]: Not Active; IC90 [3]: inactive
c1ccc2[nH]c(CN3CCc4c([nH]c5ccccc45)C3)nc2c1	Non-toxic	29.7	118	Non-toxic	inactive	Not Active	Non-toxic	Not Active	inactive	Non-toxic	–	–	–	–
O=C(N1CCOCC1)N1CCc2c([nH]c3ccccc23)C1	–	–	–	–	inactive	Not Active	–	Not Active	inactive	–	Not Active	inactive	–	IC50 [3]: Not Active; IC90 [3]: inactive
O=C(c1cnccn1)N1CCc2c([nH]c3ccccc23)C1	–	–	–	–	inactive	Not Active	–	Not Active	inactive	–	Not Active	inactive	–	IC50 [3]: Not Active; IC90 [3]: inactive
N=C(N)c1ccc(OCCCCCOc2ccc(C(=N)N)cc2)cc1 [PENTAMIDINE]	–	0.0041	4.8	–	–	–	–	–	–	–	–	–	> 29.4	IC90 ([2]; Trypanosoma brucei, 72 h): 0.007 µM; IC90 ([3]; Leishmania donovani, 72 h): 6.1 µM; IC90 [5, 15]: 3.1 µM; IC50 [5, 16]: 2 µM; IC90 ([7]; Leishmania donovani, 72 h): > 29.4 µM
O=[N+]([O-])c1ccc(CN2CCc3c([nH]c4ccccc34)C2)o1	Non-toxic	1	33.8	Non-toxic	inactive	Not Active	Non-toxic	–	–	Non-toxic	–	–	117	IC90 ([2]; Trypanosoma brucei, 72 h): 28.1 µM
COc1ccc2c3c([nH]c2c1)C(C)=NCC3 [HARMALINE]	–	–	117	–	–	–	–	–	–	–	–	–	1.16	IC50 [10]: 117 µM; IC50 [11]: 1160 nM
Cc1noc(C)c1CN1CCc2c([nH]c3ccccc23)C1	Non-toxic	15.9	–	Non-toxic	inactive	Not Active	Non-toxic	Not Active	inactive	Non-toxic	–	–	–	IC90 ([2]; Trypanosoma brucei, 72 h): 26.3 µM; IC50 [3]: Not Active; IC90 [3]: inactive
c1ccc2nc(CN3CCc4c([nH]c5ccccc45)C3)ccc2c1	–	–	–	–	inactive	Not Active	–	Not Active	inactive	–	Not Active	inactive	–	IC50 [3]: Not Active; IC90 [3]: inactive
C[C@@H]1[C@H](O)[C@@H](C)/C=C/C=C/C=C/C=C/C=C/C=C/C=C/[C@H](O[C@@H]2O[C@H](C)[C@@H](O)[C@H](N)[C@@H]2O)C[C@@H]2O[C@](O)(C[C@@H](O)C[C@@H](O)[C@H](O)CC[C@@H](O)C[C@@H](O)CC(=O)O[C@H]1C)C[C@H](O)[C@H]2C(=O)O [AMPHOTERICIN B]	–	–	0.3	–	–	–	–	–	–	–	Not Active	inactive	0.3	IC90 ([3]; Leishmania donovani, 72 h): 0.4 µM; IC90 [5, 15]: 0.5 µM; IC90 ([7]; Leishmania donovani, 72 h): 0.4 µM
c1ccc2c3c([nH]c2c1)CN(Cc1ccncc1)CC3	Non-toxic	26.2	121	Non-toxic	inactive	Not Active	Non-toxic	Not Active	inactive	Non-toxic	–	–	–	–
Cc1ccsc1C(=O)N1CCc2c([nH]c3ccccc23)C1	Non-toxic	–	26	Non-toxic	inactive	Not Active	Non-toxic	Not Active	inactive	Non-toxic	Not Active	inactive	–	–
O=C(c1ccc(-c2ccc(-c3ccccc3)cc2)o1)N1CCc2c([nH]c3ccccc23)C1	Non-toxic	–	75.3	Non-toxic	inactive	Not Active	Non-toxic	–	–	Non-toxic	Not Active	inactive	83.4	IC90 ([3]; Leishmania donovani, 72 h): 111 µM; IC90 ([7]; Leishmania donovani, 72 h): 110 µM
c1ccc2c(CN3CCc4c([nH]c5ccccc45)C3)c3ccccc3cc2c1	Non-toxic	11	16	Non-toxic	inactive	Not Active	Non-toxic	–	–	Non-toxic	–	–	80.4	IC90 ([2]; Trypanosoma brucei, 72 h): 18.8 µM; IC90 ([3]; Leishmania donovani, 72 h): 76 µM; IC90 ([7]; Leishmania donovani, 72 h): 104 µM
O=C(c1cc2ccccc2o1)N1CCc2c([nH]c3ccccc23)C1	Non-toxic	–	49.5	Non-toxic	inactive	Not Active	Non-toxic	–	–	Non-toxic	Not Active	inactive	116	IC90 ([3]; Leishmania donovani, 72 h): 120 µM
CN1CCN(C(=O)N2CCc3c([nH]c4ccccc34)C2)CC1	–	–	–	–	inactive	Not Active	–	Not Active	inactive	–	Not Active	inactive	–	IC50 [3]: Not Active; IC90 [3]: inactive
CN1CCN(C(=O)c2cc3c4ccccc4n4c(=O)c5ccccc5c(n2)c34)CC1	–	–	–	–	–	–	–	–	–	–	–	–	–	IC50 [12]: 400 nM
Cn1cc(C(=O)N2CCc3c([nH]c4ccccc34)C2)c2ccccc21	Non-toxic	–	52.6	Non-toxic	inactive	Not Active	Non-toxic	Not Active	inactive	Non-toxic	Not Active	inactive	–	–
NCCCC(N)(C(=O)O)C(F)F (stereo unspecified) [EFLORNITHINE]	–	28	–	–	–	–	–	–	–	–	–	–	–	IC90 ([2]; Trypanosoma brucei, 72 h): 68.2 µM
O=C1NCCN1C(=O)N1CCc2c([nH]c3ccccc23)C1	–	–	–	–	inactive	Not Active	–	Not Active	inactive	–	Not Active	inactive	–	IC50 [3]: Not Active; IC90 [3]: inactive
Cc1nccc2c1[nH]c1ccccc12 [HARMAN]	–	–	19.2	–	–	–	–	–	–	–	–	–	0.27	IC50 [10]: 19.2 µM; IC50 [11]: 270 nM
O=C(c1ccc2ccccc2n1)N1CCc2c([nH]c3ccccc23)C1	–	–	–	–	inactive	Not Active	–	Not Active	inactive	–	Not Active	inactive	–	IC50 [3]: Not Active; IC90 [3]: inactive
